{
  "source": "patent US7541044B2",
  "about": "“Administration of 5T4 antigen and immune response of cells expressing 5T4 and CEA antigens” (priority 2004, dated 2009)",
  "key": {"[1]": {"system": "colon carcinoma derived metastatic rat tumour line", "conditions": "SC tumour line transfected with cytosine deaminase gene, then 5-fluorocytosine; cited from earlier work"}, "[2]": {"assay": "Adverse events, NCI-common toxicity criteria (BC1)", "type": "in vivo, human", "conditions": "attributed to oral cyclophosphamide", "description": "Further assessment was performed in out-patients on day 7. Biopsy of the injected tumour nodules was performed under local anaesthetic. The biopsies were snap-frozen in liquid nitrogen, then sectioned and fixed for histological assessment. Treatment with cyclophosphamide 100 mg/m^2 p.o. was commenced for 14 out of every 28 days. Patients were reviewed weekly for the first 8 weeks and end of study assessment, including tumour size and appropriate re-staging CT scans performed at 12 weeks. Response was assessed according to WHO criteria. Patients with stable or responding disease continued with cyclophosphamide at the discretion of the investigator. Toxicity was graded according to NCI-common toxicity criteria (version 2).\nThe main toxicity observed in the study was attributed to oral cyclophosphamide with the most frequent non-haematological events described as nausea (9 patients), alopecia (6 patients), headache (5 patients), anorexia (4 patients) and fatigue (4 patients). All of these events were grade I or II by NCI-CTC with the exception of one patient with grade III fatigue. Two patients had clinically significant haematological toxicity with grade III leucopenia and grade II neutropenia. No patients were admitted with neutropenic fever. […] During the study 3 patients with breast cancer experienced serious adverse events (patient 103 hypotension, dysarthria and left sided weakness, patient 104 trismus and tongue oedema and patient 108 deep vein thrombosis, hypotension and dyspnoea). None of the serious adverse events were considered related to MetXia-P450."}, "[3]": {"system": "B16 melanoma lung metastases", "conditions": "tk gene then ganciclovir; immunocompetent but not immunodeficient mice; cited from earlier work"}},
  "data": [
    {"smiles": "Nc1nc(=O)[nH]cc1F", "note": "[5-fluorocytosine]", "values": [
      {"measurement": "regression in the volume of established liver tumours", "setting": "[1]", "value": 70, "unit": "%"}
    ]},
    {"smiles": "O=P1(N(CCCl)CCCl)NCCCO1", "note": "(stereo not drawn) [cyclophosphamide]", "values": [
      {"measurement": "clinically significant haematological toxicity (grade III leucopenia and grade II neutropenia)", "setting": "[2]", "value": "Two"},
      {"measurement": "fatigue", "setting": "[2]", "value": 4, "unit": "patients"},
      {"measurement": "grade III fatigue", "setting": "[2]", "value": "one"},
      {"measurement": "alopecia", "setting": "[2]; grade I or II", "value": 6, "unit": "patients"},
      {"measurement": "anorexia", "setting": "[2]; grade I or II", "value": 4, "unit": "patients"},
      {"measurement": "headache", "setting": "[2]; grade I or II", "value": 5, "unit": "patients"},
      {"measurement": "nausea", "setting": "[2]; grade I or II", "value": 9, "unit": "patients"}
    ]},
    {"smiles": "Nc1nc(O)c2ncn(COC(CO)CO)c2n1", "note": "[ganciclovir]", "values": [
      {"measurement": "B16 melanoma lung metastases", "setting": "[3]", "value": "marked reduction"}
    ]}
  ]
}
